Our source for the IC50 values is patent US20100105655A1, “NOVEL COMPOUNDS 515” (ASTRAZENECA AB, priority 2008, published 2010).

The target of this experiment is T1, IGFR kinase (Homo sapiens, UniProt P08069).
T1 construct: purchased Millipore
T1 sequence (P08069 31-1367): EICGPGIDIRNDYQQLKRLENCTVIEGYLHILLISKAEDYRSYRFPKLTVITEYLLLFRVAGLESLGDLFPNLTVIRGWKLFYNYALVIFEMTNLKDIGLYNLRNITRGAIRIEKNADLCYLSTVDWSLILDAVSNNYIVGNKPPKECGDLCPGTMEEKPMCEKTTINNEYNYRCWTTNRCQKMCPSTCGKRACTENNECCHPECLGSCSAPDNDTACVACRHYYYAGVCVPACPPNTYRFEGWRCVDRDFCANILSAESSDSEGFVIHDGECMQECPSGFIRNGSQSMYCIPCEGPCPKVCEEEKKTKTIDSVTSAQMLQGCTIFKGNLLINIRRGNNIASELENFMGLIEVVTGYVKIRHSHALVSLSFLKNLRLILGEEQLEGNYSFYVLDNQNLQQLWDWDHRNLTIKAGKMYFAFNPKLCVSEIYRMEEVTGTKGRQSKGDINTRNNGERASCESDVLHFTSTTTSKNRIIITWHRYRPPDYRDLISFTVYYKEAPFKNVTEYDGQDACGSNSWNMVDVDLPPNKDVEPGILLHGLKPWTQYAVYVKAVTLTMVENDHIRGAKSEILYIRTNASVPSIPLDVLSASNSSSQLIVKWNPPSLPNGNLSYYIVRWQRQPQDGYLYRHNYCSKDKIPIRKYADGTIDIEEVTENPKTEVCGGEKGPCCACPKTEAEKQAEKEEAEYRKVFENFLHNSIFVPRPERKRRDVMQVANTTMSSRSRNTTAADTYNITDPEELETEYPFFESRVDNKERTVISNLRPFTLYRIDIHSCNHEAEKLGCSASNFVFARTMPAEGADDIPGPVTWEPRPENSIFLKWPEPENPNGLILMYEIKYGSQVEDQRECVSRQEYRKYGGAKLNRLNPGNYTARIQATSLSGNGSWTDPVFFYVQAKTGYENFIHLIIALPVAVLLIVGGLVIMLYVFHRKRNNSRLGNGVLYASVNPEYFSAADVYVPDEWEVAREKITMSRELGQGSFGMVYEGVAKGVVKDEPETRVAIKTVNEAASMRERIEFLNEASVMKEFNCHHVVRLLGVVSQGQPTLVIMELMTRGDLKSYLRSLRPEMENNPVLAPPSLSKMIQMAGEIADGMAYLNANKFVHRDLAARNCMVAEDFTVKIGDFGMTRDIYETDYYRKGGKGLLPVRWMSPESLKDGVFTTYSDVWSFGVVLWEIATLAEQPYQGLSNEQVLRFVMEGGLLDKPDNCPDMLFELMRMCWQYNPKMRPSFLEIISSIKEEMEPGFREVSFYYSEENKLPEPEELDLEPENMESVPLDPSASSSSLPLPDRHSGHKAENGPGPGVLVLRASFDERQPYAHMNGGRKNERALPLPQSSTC
The experiment in a line: Enzyme assay (c), IGFR kinase, Caliper LabChip. Format: biochemical. To be noted: 30 nM IGFR kinase, 6 uM ATP, 3 uM peptide mix; read-out: IGFR IC50.
Turning to `COc1cc(N2CCN(C(CO)CO)CC2)ccc1Nc1ncc(C)c(-c2cnc3ccccn23)n1` [Example 269, 2-[4-[4-[(4-imidazo[1,2-a]pyridin-3-yl-5-methyl-pyrimidin-2-yl)amino]-3-methoxy-phenyl]piperazin-1-yl]propane-1,3-diol], the concentration for half-maximal inhibition (IC50) came out at 16 nM.

Regarding `COc1cc(N2CC3CN(CCO)CC(C2)O3)ccc1Nc1ncc(Cl)c(-c2cnn3ccccc23)n1` [Example 150, 2-[7-[4-[(5-chloro-4-pyrazolo[1,5-a]pyridin-3-yl-pyrimidin-2-yl)amino]-3-methoxy-phenyl]-9-oxa-3,7-diazabicyclo[3.3.1]nonan-3-yl]ethanol], the concentration for half-maximal inhibition (IC50) was 5 nM.

Turning to `COc1cc(N2CCN(CC(=O)N3CCOCC3)CC2)ccc1Nc1ncc(Cl)c(-c2cnc3ccccn23)n1` [Example 3.3, 2-[4-[4-[(5-chloro-4-imidazo[1,2-a]pyridin-3-yl-pyrimidin-2-yl)amino]-3-methoxy-phenyl]piperazin-1-yl]-1-morpholino-ethanone], the IC50 turned out to be 11 nM.

As for `COc1cc(OC2CCN(C(C)=O)CC2)ccc1Nc1ncc(C(F)(F)F)c(-c2cnc3ccccn23)n1` [Example 110, 1-[4-[4-[[4-imidazo[1,2-a]pyridin-3-yl-5-(trifluoromethyl)pyrimidin-2-yl]amino]-3-methoxy-phenoxy]-1-piperidyl]ethanone], the IC50 stood at 36 nM.

As to `COc1cc(CN2CC[C@H](O)C2)ccc1Nc1ncc(Cl)c(-c2cnc3ccccn23)n1` [Example 20, (3S)-1-[[4-[(5-chloro-4-imidazo[1,2-a]pyridin-3-yl-pyrimidin-2-yl)amino]-3-methoxy-phenyl]methyl]pyrrolidin-3-ol], the IC50 is 19 nM.

Take `COc1cc(O[C@H]2CCN(C(=O)[C@H](C)O)C2)ccc1Nc1ncc(Cl)c(-c2cnc3ccccn23)n1` [Example 15A, (2S)-1-[(3S)-3-[4-[(5-chloro-4-imidazo[1,2-a]pyridin-3-yl-pyrimidin-2-yl)amino]-3-methoxy-phenoxy]pyrrolidin-1-yl]-2-hydroxy-propan-1-one]: the half-inhibitory concentration (IC50) stood at 36 nM.

On to `COc1cc(O[C@@H]2CCNC2)ccc1Nc1ncc(Cl)c(-c2cnc3ccccn23)n1` [Example 6.5, 5-chloro-4-imidazo[1,2-a]pyridin-3-yl-N-[2-methoxy-4-[(3R)-pyrrolidin-3-yl]oxy-phenyl]pyrimidin-2-amine], for which the half-inhibitory concentration (IC50) turned out to be 11 nM.

For the molecule `COc1cc(N2CCN(C(C)=O)C[C@@H](O)C2)ccc1Nc1ncc(Cl)c(-c2cnc3ccccn23)n1` [Example 3.40, 1-[(6S)-4-[4-[(5-chloro-4-imidazo[1,2-a]pyridin-3-yl-pyrimidin-2-yl)amino]-3-methoxy-phenyl]-6-hydroxy-1,4-diazepan-1-yl]ethanone], the IC50 was found to be 24 nM.

Consider `COc1cc(CN2CCC(C(N)=O)CC2)ccc1Nc1ncc(Cl)c(-c2cnc3ccccn23)n1` [Example 21.7, 1-[[4-[(5-chloro-4-imidazo[1,2-a]pyridin-3-yl-pyrimidin-2-yl)amino]-3-methoxy-phenyl]methyl]piperidine-4-carboxamide], for which the concentration for half-maximal inhibition (IC50) was 31 nM.

As to `COc1cc(N2CCN(C(C)=O)C(CO)C2)ccc1Nc1ncc(Cl)c(-c2cnc3ccccn23)n1` (stereo not drawn) [Example 3.38, 1-[4-[4-[(5-chloro-4-imidazo[1,2-a]pyridin-3-yl-pyrimidin-2-yl)amino]-3-methoxy-phenyl]-2-(hydroxymethyl)piperazin-1-yl]ethanone], the IC50 is 21 nM.

`COc1cc(N2CC3CN(CCS(C)(=O)=O)CC(C2)O3)ccc1Nc1ncc(Cl)c(-c2cnc3c(F)cccn23)n1` [Example 207, 5-chloro-4-(8-fluoroimidazo[1,2-a]pyridin-3-yl)-N-[2-methoxy-4-[3-(2-methylsulfonylethyl)-9-oxa-3,7-diazabicyclo[3.3.1]nonan-7-yl]phenyl]pyrimidin-2-amine]: the IC50 came to 19 nM.

As to `COc1cc(N2CCN(C(=O)[C@H](C)N)CC2)ccc1Nc1ncc(Cl)c(-c2cnn3ccccc23)n1` [Example 132, (2S)-2-amino-1-[4-[4-[(5-chloro-4-pyrazolo[1,5-a]pyridin-3-yl-pyrimidin-2-yl)amino]-3-methoxy-phenyl]piperazin-1-yl]propan-1-one], the IC50 was 3 nM.

As to `COc1cc(N2C[C@@H]3C[C@H]2CN3C(C)=O)ccc1Nc1ncc(Cl)c(-c2cnn3ccccc23)n1` [Example 241, 1-[(1S,4S)-2-[4-[(5-chloro-4-pyrazolo[1,5-a]pyridin-3-yl-pyrimidin-2-yl)amino]-3-methoxy-phenyl]-2,5-diazabicyclo[2.2.1]heptan-5-yl]ethanone], the half-inhibitory concentration (IC50) amounted to 36 nM.

For `COc1cc(OC2CN(C(=O)[C@H](C)OC)C2)ccc1Nc1ncc(Cl)c(-c2cnc3ccccn23)n1` [Example 27.2, (2S)-1-[3-[4-[(5-chloro-4-imidazo[1,2-a]pyridin-3-yl-pyrimidin-2-yl)amino]-3-methoxy-phenoxy]azetidin-1-yl]-2-methoxy-propan-1-one], the half-inhibitory concentration (IC50) turned out to be 36 nM.

Consider `COc1ccc(N2CCC(OC)CC2)cc1Nc1ncc(Cl)c(-c2cnc3ccccn23)n1` [Example 3.20, 5-chloro-4-imidazo[1,2-a]pyridin-3-yl-N-[2-methoxy-5-(4-methoxy-1-piperidyl)phenyl]pyrimidin-2-amine], for which the IC50 stood at 43 nM.

Regarding `COc1cc(N2CCN(C(C)=O)CC2)ccc1Nc1ncc(Cl)c(-c2cnc3cc(Br)ccn23)n1` [Example 126.19, 1-[4-[4-[[4-(7-bromoimidazo[1,2-a]pyridin-3-yl)-5-chloro-pyrimidin-2-yl]amino]-3-methoxy-phenyl]piperazin-1-yl]ethanone], the half-inhibitory concentration (IC50) was determined as 15 nM.

As to `COc1cc(N2CCN(C(=O)CN3CCOCC3)CC2)ccc1Nc1ncc(Cl)c(-c2cnc3ccccn23)n1` [Example 275, 1-[4-[4-[(5-chloro-4-imidazo[1,2-a]pyridin-3-yl-pyrimidin-2-yl)amino]-3-methoxy-phenyl]piperazin-1-yl]-2-morpholino-ethanone], the IC50 came out at 9 nM.

For `COc1cc(OC[C@H]2CCCN2)ccc1Nc1ncc(F)c(-c2cnc3ccccn23)n1` [Example 87, 5-fluoro-4-imidazo[1,2-a]pyridin-3-yl-N-[2-methoxy-4-[[(2R)-pyrrolidin-2-yl]methoxy]phenyl]pyrimidin-2-amine], the IC50 was 65 nM.

For `COc1cc(N2CCN(C(=O)[C@@H]3CCCCN3)CC2)ccc1Nc1ncc(Cl)c(-c2cnc3ccccn23)n1` [Example 24.2, [4-[4-[(5-chloro-4-imidazo[1,2-a]pyridin-3-yl-pyrimidin-2-yl)amino]-3-methoxy-phenyl]piperazin-1-yl]-[(2S)-2-piperidyl]methanone], the IC50 worked out at 6 nM.

In the case of `COc1cc(CN2CCC2)ccc1Nc1ncc(Cl)c(-c2cnc3ccccn23)n1` [Example 21.10, N-[4-(azetidin-1-ylmethyl)-2-methoxy-phenyl]-5-chloro-4-imidazo[1,2-a]pyridin-3-yl-pyrimidin-2-amine], the 50% inhibitory concentration (IC50) worked out at 18 nM.

On to `COc1cc(CN2CCN(C(C)=O)CC2)ccc1Nc1ncc(Cl)c(-c2cnc3ccccn23)n1` [Example 21.6, 1-[4-[[4-[(5-chloro-4-imidazo[1,2-a]pyridin-3-yl-pyrimidin-2-yl)amino]-3-methoxy-phenyl]methyl]piperazin-1-yl]ethanone], for which the concentration for half-maximal inhibition (IC50) was 26 nM.

What is called IC50 is the concentration that inhibits the measured activity by half.
